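A five-concentration, 48-hour dose response in 96-well plates underlies each endpoint, interpolated linearly between surrounding concentrations. TGI: concentration producing complete growth inhibition.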

This is an account of results in PubChem BioAssay (NCI).

Among the test systems are NCI-H460 lung; SR leukemia; K-562 leukemia; UO-31 renal; SK-MEL-28 melanoma; M14 melanoma; HOP-92 NSCLC; HS 578T breast; ACHN renal; UACC-62 melanoma; BT-549 breast; T-47D breast; MDA-N; DU-145 prostate; A498 renal; HOP-62 NSCLC; SF-539 CNS; IGROV1 ovarian; SNB-75 CNS; SN12C renal.
Holding throughout (assay): growth of human tumour cells (NCI), 48 h

As to `CC1(C)C2C=C(CCN3CCOCC3)CC1C2` (stereo unspecified), the TGI in the experiment on NCI-H460 lung, with SR leukemia, with K-562 leukemia, in the experiment on UO-31 renal, with SK-MEL-28 melanoma and in the experiment with M14 melanoma was more than 100 µM each time. Further, the TGI in the experiment with HOP-92 NSCLC, with HS 578T breast, in the experiment on ACHN renal, in the experiment on UACC-62 melanoma, with BT-549 breast and in the experiment on T-47D breast was more than 100 µM in each case. Moreover, the TGI in the experiment with MDA-N, in the experiment with DU-145 prostate, with A498 renal, with HOP-62 NSCLC, in the experiment on SF-539 CNS and with IGROV1 ovarian was more than 100 µM in each case. Further, the TGI with SNB-75 CNS and with SN12C renal was more than 100 µM each time.
Regarding `CCN1CCC(O)(c2ccc(Oc3ccccc3)cc2)C(C(=O)c2ccc(Oc3ccccc3)cc2)C1` (stereo unspecified), the TGI in the experiment with NCI-H460 lung was 13.2 µM; with SR leukemia, 24.8 µM; with K-562 leukemia, more than 100 µM; in the experiment on UO-31 renal, 21.8 µM; in the experiment with SK-MEL-28 melanoma, 26.5 µM; in the experiment on M14 melanoma, 26.3 µM. Further, the TGI came to 22.3 µM in the experiment with HOP-92 NSCLC; 78.1 µM in the experiment on HS 578T breast; 29.8 µM with ACHN renal; 25.9 µM in the experiment with UACC-62 melanoma; 22.5 µM in the experiment on BT-549 breast; 28.4 µM with T-47D breast. Further, the TGI was 26.7 µM in the experiment on MDA-N; 27.5 µM in the experiment on DU-145 prostate; 30.4 µM in the experiment on A498 renal; 25.3 µM in the experiment with HOP-62 NSCLC; 23.4 µM with SF-539 CNS; 33 µM in the experiment on IGROV1 ovarian. For the same compound, the figures for the TGI in the experiment with SNB-75 CNS and in the experiment on SN12C renal were 28.9 µM and 29.5 µM, respectively.
As to `CN(C)CCCNC(=O)c1c(O)c2ccccc2[nH]c1=O`, the TGI in the experiment with NCI-H460 lung is more than 100 µM; in the experiment with SR leukemia, more than 100 µM; in the experiment with K-562 leukemia, more than 100 µM; in the experiment with UO-31 renal, 58.6 µM; in the experiment with SK-MEL-28 melanoma, more than 100 µM; in the experiment with HOP-92 NSCLC, more than 100 µM. Moreover, the TGI in the experiment on HS 578T breast, in the experiment on ACHN renal, with UACC-62 melanoma, in the experiment on BT-549 breast, with T-47D breast and in the experiment on MDA-N was more than 100 µM in each case. Further, the TGI in the experiment with DU-145 prostate, with A498 renal, in the experiment with HOP-62 NSCLC, in the experiment with SF-539 CNS, with IGROV1 ovarian and with SNB-75 CNS was more than 100 µM throughout. In the experiment with SN12C renal, this compound came in with a TGI of more than 100 µM.
Turning to `O=C(NNC(=S)Nc1ccccc1)c1cc(-c2ccccc2)nc2ccccc12`, the TGI is more than 100 µM in the experiment on NCI-H460 lung; 32.9 µM with SR leukemia; 63.2 µM in the experiment on K-562 leukemia; 31 µM in the experiment with UO-31 renal; 59.5 µM in the experiment with SK-MEL-28 melanoma; 30.5 µM in the experiment with M14 melanoma. Further, the TGI with HOP-92 NSCLC was determined as 37.7 µM; with HS 578T breast, 65.6 µM; with ACHN renal, 91.9 µM; in the experiment on UACC-62 melanoma, 39.1 µM; with BT-549 breast, 49.6 µM; with T-47D breast it was 50.5 µM. The TGI is 37.9 µM with MDA-N; 39.1 µM with DU-145 prostate; 28 µM in the experiment with A498 renal; 33.3 µM in the experiment with HOP-62 NSCLC; 38.7 µM in the experiment on SF-539 CNS; more than 100 µM in the experiment on IGROV1 ovarian. Also, the TGI stood at 71.3 µM in the experiment with SNB-75 CNS and 40.6 µM in the experiment on SN12C renal.
With `Cc1ccc2nc(Cl)c(/C=N/N3C(=O)/C(=C/c4cccc([N+](=O)[O-])c4)N=C3c3ccccc3)cc2c1`, the TGI with NCI-H460 lung was more than 100 µM; in the experiment on SR leukemia, 59.6 µM; in the experiment on K-562 leukemia it was more than 100 µM; in the experiment with UO-31 renal it was more than 100 µM; with SK-MEL-28 melanoma it was more than 100 µM; in the experiment on M14 melanoma it was more than 100 µM. For the same compound, the TGI in the experiment with HOP-92 NSCLC, with HS 578T breast, in the experiment on ACHN renal, in the experiment with UACC-62 melanoma, in the experiment with BT-549 breast and in the experiment on T-47D breast was more than 100 µM throughout. The TGI with MDA-N was 42.2 µM; with DU-145 prostate, more than 100 µM; with A498 renal, 52.3 µM; in the experiment with HOP-62 NSCLC, more than 100 µM; in the experiment on SF-539 CNS, more than 100 µM; with IGROV1 ovarian, more than 100 µM. Besides, the TGI in the experiment with SNB-75 CNS and in the experiment with SN12C renal was more than 100 µM in each case.
With `Cc1ccc(C2=Nn3c(nc4sc(C)c(C)c4c3=O)SC2)cc1`, the TGI in the experiment on NCI-H460 lung, with SR leukemia, with K-562 leukemia, in the experiment on UO-31 renal, with SK-MEL-28 melanoma and with HOP-92 NSCLC was more than 100 µM each time. Further, the TGI with HS 578T breast, in the experiment with ACHN renal, in the experiment on UACC-62 melanoma, with BT-549 breast, in the experiment on T-47D breast and in the experiment on MDA-N was more than 100 µM in each case. Besides, the TGI in the experiment on DU-145 prostate, with A498 renal, in the experiment with HOP-62 NSCLC, in the experiment on SF-539 CNS, with IGROV1 ovarian and with SNB-75 CNS was more than 100 µM each time. This compound also showed a TGI with SN12C renal of more than 100 µM.
Take `Cn1c(=O)c2c(nc3n(CCCCl)c(=O)ccn23)n(C)c1=O`: the TGI with NCI-H460 lung, in the experiment on SR leukemia, with K-562 leukemia, with UO-31 renal, with SK-MEL-28 melanoma and in the experiment with M14 melanoma was more than 100 µM throughout. Also, the TGI in the experiment on HOP-92 NSCLC, in the experiment with HS 578T breast, with ACHN renal, in the experiment on UACC-62 melanoma, in the experiment on BT-549 breast and in the experiment on T-47D breast was more than 100 µM throughout. Besides, the TGI in the experiment on MDA-N, in the experiment with DU-145 prostate, with A498 renal, in the experiment with HOP-62 NSCLC, in the experiment on SF-539 CNS and with IGROV1 ovarian was more than 100 µM each time. Also, the TGI with SNB-75 CNS and in the experiment with SN12C renal was more than 100 µM each time.
As to `O=C1C(N2CCN(c3ccccn3)CC2)=C(Cl)C(=O)c2ncccc21`, the TGI was more than 10 µM in the experiment on NCI-H460 lung; more than 6.21 µM in the experiment with SR leukemia; more than 10 µM with K-562 leukemia; more than 5.53 µM with UO-31 renal; more than 7.95 µM with SK-MEL-28 melanoma; 3.82 µM with M14 melanoma. The TGI in the experiment with HOP-92 NSCLC was 2.94 µM; in the experiment on HS 578T breast, more than 10 µM; with ACHN renal it was 4.91 µM; with UACC-62 melanoma, more than 6.76 µM; in the experiment on BT-549 breast it was more than 10 µM; in the experiment on T-47D breast, 4.09 µM. Besides, the TGI with MDA-N was 3.08 µM; with DU-145 prostate it was more than 10 µM; in the experiment on A498 renal, more than 10 µM; in the experiment with HOP-62 NSCLC, more than 10 µM; in the experiment on SF-539 CNS, more than 10 µM; in the experiment on IGROV1 ovarian, more than 10 µM. For the same compound, the TGI was more than 10 µM in the experiment with SNB-75 CNS and 3.22 µM in the experiment with SN12C renal.
Take `COc1ccc(OC)c(-c2nc3n(c2/C=C2/C(=O)Nc4ccccc42)CCS3)c1`: the TGI in the experiment with NCI-H460 lung was more than 100 µM; in the experiment on SR leukemia, 94.4 µM; with K-562 leukemia it was more than 100 µM; in the experiment with UO-31 renal, more than 100 µM; in the experiment on SK-MEL-28 melanoma it was more than 100 µM; with M14 melanoma it was more than 100 µM. For the same compound, the TGI in the experiment on HOP-92 NSCLC, in the experiment on HS 578T breast, in the experiment with ACHN renal, with UACC-62 melanoma, in the experiment on BT-549 breast and with T-47D breast was more than 100 µM throughout. In addition, the TGI is 44.7 µM in the experiment with MDA-N; more than 100 µM in the experiment with DU-145 prostate; more than 100 µM in the experiment with A498 renal; more than 100 µM in the experiment with HOP-62 NSCLC; more than 100 µM in the experiment on SF-539 CNS; more than 100 µM with IGROV1 ovarian. Also, the TGI in the experiment on SNB-75 CNS was 83 µM; in the experiment on SN12C renal, more than 100 µM.
Turning to `CC(CC[C@@H](O)C(C)(C)O)C1[C@@H](O)CC2(C)C3CC(O)C4C(C)(C)[C@@H](OC5OC(CO)C(O)C(O)C5O)CC[C@@]45C[C@@]35CC[C@]12C` (stereo partly specified), the TGI with NCI-H460 lung, in the experiment with SR leukemia, in the experiment on K-562 leukemia, with SK-MEL-28 melanoma, in the experiment on M14 melanoma and in the experiment on HOP-92 NSCLC was more than 10 µM in each case. In addition, the TGI with HS 578T breast, in the experiment on ACHN renal, in the experiment on UACC-62 melanoma, in the experiment on BT-549 breast, with T-47D breast and in the experiment with MDA-N was more than 10 µM in each case. Also, the TGI in the experiment with DU-145 prostate, in the experiment with A498 renal, in the experiment on HOP-62 NSCLC, with SF-539 CNS, in the experiment on IGROV1 ovarian and in the experiment with SNB-75 CNS was more than 10 µM throughout. In addition, the TGI with SN12C renal was more than 10 µM.
In the case of `CC[C@@]1(O)C(=O)OCc2c1cc1n(c2=O)Cc2c-1nc1ccccc1c2/C=N\NC(=O)C(N)CO` (stereo partly specified), the TGI with NCI-H460 lung was 25.3 µM; with SR leukemia it was 3.59 µM; in the experiment on K-562 leukemia, more than 100 µM; in the experiment with UO-31 renal, 11 µM; with SK-MEL-28 melanoma, more than 100 µM; in the experiment on M14 melanoma, 7.51 µM. The TGI with HOP-92 NSCLC was 50.5 µM; in the experiment on HS 578T breast, more than 100 µM; in the experiment on UACC-62 melanoma it was 0.419 µM; with BT-549 breast, more than 100 µM; in the experiment with T-47D breast, more than 100 µM; in the experiment on MDA-N, more than 100 µM. The TGI with DU-145 prostate is more than 100 µM; in the experiment on A498 renal it was 12.2 µM; with HOP-62 NSCLC, 9.35 µM; in the experiment on SF-539 CNS, 0.763 µM; with IGROV1 ovarian it was more than 100 µM; in the experiment on SNB-75 CNS, 0.312 µM. The same compound showed a TGI in the experiment with SN12C renal of 25.3 µM.
